Counter-ions that a name gives are not always drawn.
These compounds were tested against T1, human recombinant HPK1 (Homo sapiens, UniProt Q92918) (assay: Inhibitory activity against human recombinant HPK1 (TR-FRET)). Conditions: ULight-p70S6K peptide, ATP at Km, room temperature, 1 hour, 0.32 to 1000 nM compound.
T1 construct: purchased BPS Bioscience
Assay type: biochemical
Protocol: Test Example: Evaluation of Inhibitory Activity Against Human Recombinant HPK1
The inhibitory activity against human recombinant HPK1 was evaluated using the Time-Resolved Fluorescence Resonance Energy Transfer (TR-FRET) technology of Perkin-Elmer. The test compound was prepared as a 20 mM stock solution with dimethyl sulfoxide (DMSO), serially diluted in a buffer solution, and used at final compound concentrations of 0.32 to 1000 nM. The evaluation of inhibitory activity was carried out at room temperature, using recombinant human HPK1 (BPS Bioscience). Briefly, recombinant human HPK1, serially diluted each test compound, ULight-p70S6K peptide substrate (PerkinElmer), and ATP at each concentration (Km and final concentration) were added to a kinase buffer solution (50 mM HEPES pH 7.4, 10 mM MgCl2, 1 mM EGTA, 3 mM MnCl2, 2 mM DTT, and 0.01% Tween-20). The resulting mixture was added to each well of a 384-well plate (Optiplate™ 384, white, PerkinElmer). The enzyme reaction was carried out at room temperature for 1 hour. After the reaction was suspended by adding 4 μL of a stop solution (10 mM EDTA) thereto, the mixture was stirred for 1 minute and then a detection solution containing Europium-labeled anti-phosphopeptide antibody (final concentration: 2 nM, PerkinElmer) was added thereto. The signals of TR-FRET at excitation wavelength (320 nm) and emission wavelength (665 nm) were detected using a microplate reader (Envision Multilabel Reader, Perkin-Elmer). Inhibition by the test compound was measured as % inhibition in the signals, compared to the control group treated with DMSO only. The IC50 value of each compound was calculated using the GraphPad Prism program (GraphPad Software, Inc., San Diego, CA, USA). The IC50 values of test compounds for inhibitory activity against HPK1 were classified as follows: • A: IC50≤10 nM • B: 10 nM<IC50≤50 nM • C: 50 nM<IC50≤100 nM • D: IC50>100 nM

T1 sequence (Q92918 whole entry): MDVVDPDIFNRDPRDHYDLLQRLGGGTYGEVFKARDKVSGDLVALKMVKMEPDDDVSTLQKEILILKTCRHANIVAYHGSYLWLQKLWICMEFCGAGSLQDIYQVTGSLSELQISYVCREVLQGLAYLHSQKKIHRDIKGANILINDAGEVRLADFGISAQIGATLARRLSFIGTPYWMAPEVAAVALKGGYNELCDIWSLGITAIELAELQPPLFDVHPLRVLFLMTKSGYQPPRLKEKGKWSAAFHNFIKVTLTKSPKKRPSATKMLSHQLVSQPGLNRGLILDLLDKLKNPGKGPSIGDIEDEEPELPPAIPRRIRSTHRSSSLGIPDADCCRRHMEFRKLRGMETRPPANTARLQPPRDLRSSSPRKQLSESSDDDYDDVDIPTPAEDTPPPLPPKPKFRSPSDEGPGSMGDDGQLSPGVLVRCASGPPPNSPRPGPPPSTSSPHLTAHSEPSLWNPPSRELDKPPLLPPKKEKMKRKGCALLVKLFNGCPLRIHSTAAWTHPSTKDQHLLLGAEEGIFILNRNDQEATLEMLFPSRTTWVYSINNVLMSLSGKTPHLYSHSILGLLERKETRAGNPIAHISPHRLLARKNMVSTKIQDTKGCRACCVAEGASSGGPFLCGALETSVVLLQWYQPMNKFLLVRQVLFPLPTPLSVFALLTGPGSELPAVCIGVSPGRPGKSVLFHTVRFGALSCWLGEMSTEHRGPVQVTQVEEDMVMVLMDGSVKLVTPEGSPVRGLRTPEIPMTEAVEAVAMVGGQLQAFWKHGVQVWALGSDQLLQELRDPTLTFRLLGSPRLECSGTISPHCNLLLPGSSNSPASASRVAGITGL

SMILES	IC50 [nM]
COc1cccc(F)c1-c1nccc(Nc2cc(N3CCC[C@H](O)C3)c(-c3ccc(CN4CCCC(O)C4)nc3)cn2)n1 (stereo partly drawn) [Example 49, 1-((6′-((2-(2-fluoro-6-methoxyphenyl)pyrimidin-4-yl)amino)-4′-((S)-3-hydroxypiperidin-1-yl)-[3,3′-bipyridin]-6-yl)methyl)piperidin-3-ol]	> 100
COc1cccc(F)c1-c1nccc(Nc2cc(N3CCC[C@H](C(N)=O)C3)c(-c3cnn(C4CCOCC4)c3)cn2)n1 [Example 50, (S)-1-(2-((2-(2-fluoro-6-methoxyphenyl)pyrimidin-4-yl)amino)-5-(1-(tetrahydro-2H-pyran-4-yl)-1H-pyrazol-4-yl)pyridin-4-yl)piperidin-3-carboxamide]	> 100
COc1cccc(F)c1-c1nccc(Nc2cc(N3CCC[C@@H](C(N)=O)C3)c(-c3cnn(C4CCOCC4)c3)cn2)n1 [Example 51, (R)-1-(2-((2-(2-fluoro-6-methoxyphenyl)pyrimidin-4-yl)amino)-5-(1-(tetrahydro-2H-pyran-4-yl)-1H-pyrazol-4-yl)pyridin-4-yl)piperidin-3-carboxamide]	50 to 100
COc1cccc(F)c1-c1nc(Nc2cc(N3CCC[C@H](O)C3)c(-c3ccc(C(=O)N4CCC(O)CC4)nc3)cn2)ccc1[N+](=O)[O-] [Example 54, (6′-((6-(2-fluoro-6-methoxyphenyl)-5-nitropyridin-2-yl)amino)-4′-((S)-3-hydroxypiperidin-1-yl)-[3,3′-bipyridin]-6-yl)(4-hydroxypiperidin-1-yl)methanone]	10 to 50
COc1cccc(F)c1-c1nccc(Nc2cc(N3CCC[C@H](O)C3)c(-c3ccc(CN4CCC(N)CC4)nc3)cn2)n1 [Example 55, (S)-1-(6′-((4-aminopiperidin-1-yl)methyl)-6-((2-(2-fluoro-6-methoxyphenyl)pyrimidin-4-yl)amino)-[3,3′-bipyridin]-4-yl)piperidin-3-ol hydrochloride]	10 to 50
COc1cccc(F)c1-c1nccc(Nc2cc(N3CCC[C@H](O)C3)c(-c3ccc(C(F)(F)F)nc3)cn2)n1 [Example 57, (S)-1-(6-((2-(2-fluoro-6-methoxyphenyl)pyrimidin-4-yl)amino)-6′-(trifluoromethyl)-[3,3′-bipyridin]-4-yl)piperidin-3-ol]	50 to 100
COc1cccc(F)c1-c1nc(Nc2cc(N3CCC[C@H](O)C3)c(-c3cnn(C4CCOCC4)c3)cn2)ccc1C [Example 58, (3S)-1-(2-((6-(2-fluoro-6-methoxyphenyl)-5-methylpyridin-2-yl)amino)-5-(1-(tetrahydro-2H-pyran-4-yl)-1H-pyrazol-4-yl)pyridin-4-yl)piperidin-3-ol]	> 100
COc1cccc(F)c1-c1nccc(Nc2cc(N3CCC[C@H](O)C3)c(-c3ccc4nccn4c3)cn2)n1 [Example 61, (S)-1-(2-((2-(2-fluoro-6-methoxyphenyl)pyrimidin-4-yl)amino)-5-(imidazo[1,2-a]pyridin-6-yl)pyridin-4-yl)piperidin-3-ol]	10 to 50
COc1cccc(F)c1-c1nccc(Nc2cc(N3CCC[C@H](O)C3)c(-c3ccc4nncn4c3)cn2)n1 [Example 62, (S)-1-(5-([1,2,4]triazolo[4,3-a]pyridin-6-yl)-2-((2-(2-fluoro-6-methoxyphenyl)pyrimidin-4-yl)amino)pyridin-4-yl)piperidin-3-ol]	50 to 100
COc1cccc(F)c1-c1nccc(Nc2cc(N3CCN(C)CC3)c(-c3cnn(C4CCOCC4)c3)cn2)n1 [Example 68, 2-(2-fluoro-6-methoxyphenyl)-N-(4-(4-methylpiperazin-1-yl)-5-(1-(tetrahydro-2H-pyran-4-yl)-1H-pyrazol-4-yl)pyridin-2-yl)pyrimidin-4-amine]	10 to 50
COC(=O)c1ccc(Nc2cc(N3CCC[C@H](N)C3)c(-c3cnn(C4CCOCC4)c3)cn2)nc1-c1c(F)cccc1OC [Example 71, methyl 6-((4-((S)-3-aminopiperidin-1-yl)-5-(1-(tetrahydro-2H-pyran-4-yl)-1H-pyrazol-4-yl)pyridin-2-yl)amino)-2-(2-fluoro-6-methoxyphenyl)nicotinate hydrochloride]	≤ 10
COc1cccc(F)c1-c1nccc(Nc2cc(N3CCC[C@H](O)C3)c(-c3cnn(C(F)F)c3)cn2)n1 [Example 72, (S)-1-(5-(1-(difluoromethyl)-1H-pyrazol-4-yl)-2-((2-(2-fluoro-6-methoxyphenyl)pyrimidin-4-yl)amino)pyridin-4-yl)piperidin-3-ol]	≤ 10
COc1cccc(F)c1-c1nccc(Nc2cc(N3CCC[C@H](N)C3)c(-c3cnn(C(F)F)c3)cn2)n1 [Example 73, (S)-N-(4-(3-aminopiperidin-1-yl)-5-(1-(difluoromethyl)-1H-pyrazol-4-yl)pyridin-2-yl)-2-(2-fluoro-6-methoxyphenyl)pyrimidin-4-amine hydrochloride]	≤ 10

Continued, values first:

IC50 [nM]	SMILES
≤ 10	COc1cccc(F)c1-c1nccc(Nc2cc(N3CCC[C@H](N)C3)c(-c3cnn(C4CCOCC4)c3)cn2)n1 [Example 52, (S)-N-(4-(3-aminopiperidin-1-yl)-5-(1-(tetrahydro-2H-pyran-4-yl)-1H-pyrazol-4-yl)pyridin-2-yl)-2-(2-fluoro-6-methoxyphenyl)pyrimidin-4-amine hydrochloride]
≤ 10	COc1cccc(F)c1-c1nccc(Nc2cc(N3CCC[C@@H](N)C3)c(-c3cnn(C4CCOCC4)c3)cn2)n1 [Example 53, (R)-N-(4-(3-aminopiperidin-1-yl)-5-(1-(tetrahydro-2H-pyran-4-yl)-1H-pyrazol-4-yl)pyridin-2-yl)-2-(2-fluoro-6-methoxyphenyl)pyrimidin-4-amine]
≤ 10	COc1cccc(F)c1-c1nc(Nc2cc(N3CCC[C@H](O)C3)c(-c3cnn(C4CCOCC4)c3)cn2)ccc1C#N [Example 59, 2-(2-fluoro-6-methoxyphenyl)-6-((4-((S)-3-hydroxypiperidin-1-yl)-5-(1-(tetrahydro-2H-pyran-4-yl)-1H-pyrazol-4-yl)pyridin-2-yl)amino)nicotinonitrile]
≤ 10	COC(=O)c1ccc(Nc2cc(N3CCC[C@H](O)C3)c(-c3cnn(C4CCOCC4)c3)cn2)nc1-c1c(F)cccc1OC [Example 60, methyl 2-(2-fluoro-6-methoxyphenyl)-6-((4-((S)-3-hydroxypiperidin-1-yl)-5-(1-(tetrahydro-2H-pyran-4-yl)-1H-pyrazol-4-yl)pyridin-2-yl)amino)nicotinate]
≤ 10	COc1cccc(F)c1-c1nccc(Nc2cc(N3CCC(CCN(C)C)CC3)c(-c3cnn(C4CCOCC4)c3)cn2)n1 [Example 64, N-(4-(4-(2-(dimethylamino)ethyl)piperidin-1-yl)-5-(1-(tetrahydro-2H-pyran-4-yl)-1H-pyrazol-4-yl)pyridin-2-yl)-2-(2-fluoro-6-methoxyphenyl)pyrimidin-4-amine]
≤ 10	COc1cccc(F)c1-c1nccc(Nc2cc(N3CCC(C4(O)CC4)CC3)c(-c3cnn(C4CCOCC4)c3)cn2)n1 [Example 65, 1-(1-(2-((2-(2-fluoro-6-methoxyphenyl)pyrimidin-4-yl)amino)-5-(1-(tetrahydro-2H-pyran-4-yl)-1H-pyrazol-4-yl)pyridin-4-yl)piperidin-4-yl)cyclopropan-1-ol]
≤ 10	COc1cccc(F)c1-c1nccc(Nc2cc(N3CCC(C(C)O)CC3)c(-c3cnn(C4CCOCC4)c3)cn2)n1 (centres unmarked) [Example 66, 1-(1-(2-((2-(2-fluoro-6-methoxyphenyl)pyrimidin-4-yl)amino)-5-(1-(tetrahydro-2H-pyran-4-yl)-1H-pyrazol-4-yl)pyridin-4-yl)piperidin-4-yl)ethan-1-ol]
≤ 10	COc1cccc(F)c1-c1nccc(Nc2cc(N3CCC(C(C)(C)CO)CC3)c(-c3cnn(C4CCOCC4)c3)cn2)n1 [Example 67, 2-(1-(2-((2-(2-fluoro-6-methoxyphenyl)pyrimidin-4-yl)amino)-5-(1-(tetrahydro-2H-pyran-4-yl)-1H-pyrazol-4-yl)pyridin-4-yl)piperidin-4-yl)-2-methylpropan-1-ol]
≤ 10	O[C@H]1CCCN(c2cc(Nc3ccnc(-c4cc5nccnc5cc4F)n3)ncc2-c2cnn(C3CCOCC3)c2)C1 [Example 69, (S)-1-(2-((2-(7-fluoroquinoxalin-6-yl)pyrimidin-4-yl)amino)-5-(1-(tetrahydro-2H-pyran-4-yl)-1H-pyrazol-4-yl)pyridin-4-yl)piperidin-3-ol]
≤ 10	COc1cccc(F)c1-c1nc(Nc2cc(N3CCC[C@H](N)C3)c(-c3cnn(C4CCOCC4)c3)cn2)ccc1[N+](=O)[O-] [Example 70, 4-((S)-3-aminopiperidin-1-yl)-N-(6-(2-fluoro-6-methoxyphenyl)-5-nitropyridin-2-yl)-5-(1-(tetrahydro-2H-pyran-4-yl)-1H-pyrazol-4-yl)pyridin-2-amine hydrochloride]
